{"source": "patent US5760000A", "about": "(University Technologies International,Inc., priority 1994, dated 1998)", "key": {"[1]": {"target": "GnRH receptor (HepG2 membrane preparation)", "experiment": "GnRH in vitro binding to HepG2 membrane preparation (radioreceptor assay)", "design": "species or system human", "conditions": "Labeled ligand 125I-[D-Lys6]-GnRH; 95% confidence interval in parentheses; 4° C.", "protocol": "(§1) Cells were grown to confluence as previously described and harvested from the flasks by using a rubber policeman. The cells were washed in normal assay buffer (([…] Tris[hydroxymethyl] aminomethane[Tris]-HCl), containing 1 mM dithiothreitol and 0.5% BSA [fraction-V] (pH 7.6)) and precipitated by centrifugation at 500g for 5 minutes at 4° C.\n(§2) The cleaned cells were homogenized in 50 ml of freshly prepared ice cold 25 mM sucrose in assay buffer containing 1 mM Phenylmethanesulphonyl fluoride and 5 mM Ethylenediaminetetraacetic acid, using a glass TEFLON (polytetra-fluoroethylene) homogenizer, followed by centrifugation at 100 ×g for 5 minutes (4° C.). The supernatant was further centrifuged at 17,000×g for 30 minutes at 4° C., and the pellet (crude membrane preparation) washed briefly and resuspended in the assay buffer (approximately 40-50 μg membrane protein or approximately 1 x 10^6 cell equivalent per 100 μl).\n(§3) For protein determination, aliquots of crude membrane preparations were washed twice with double distilled water by centrifugation (25,000 ×g) and assayed for protein content, using BSA as the standard. The binding assay was carried out at 4° C.\n(§4) The displacement curves were fitted for both single and two classes of binding sites by computer calculated lines, as described.\n(§5) The potency of various GnRH-related peptides in terms of binding (equilibrium dissociation constant; kd) and growth suppression activity in the human hepatocarcinoma derived cell line HepG2 was studied. […] Data analysis was performed as described.\n(§6) Homologous displacement of GnRH-related peptides in membrane homogenates prepared from HepG2 cells and non-cancerous postmortem human liver tissue was studied. Values (mean ± SEM) represent specific binding [B/T, bound over total, in %] determined by subtraction of non-saturable binding in the presence of excess peptides (10^-5 M). Results were obtained from 5 to 7 separated experiments, each carried out in triplicate. The binding data were analyzed by computerized Scatchard analysis (LIGAND) according to Munson and Rodbard."}, "[2]": {"target": "GnRH binding sites (normal human liver)", "experiment": "GnRH in vitro binding to non-cancerous postmortem human liver membrane preparation", "conditions": "Labeled ligand 125I-[D-Lys6]-GnRH; 95% confidence interval in parentheses; read-out: Receptor Binding Activity (Kd, nM) Normal Human Liver", "protocol": "as §1, §2\n(§7) A similar protocol was used to prepare the membrane from fresh rat and frozen human postmortem liver. In all experiments the final membrane preparation was used in the radioreceptor assay within 45 minutes.\nas §3, §4, §6"}, "[3]": {"target": "GnRH binding sites (normal rat liver)", "experiment": "GnRH in vitro binding to normal rat liver membrane preparation", "conditions": "Labeled ligand 125I-[D-Lys6]-GnRH; 95% confidence interval in parentheses; read-out: Receptor Binding Activity (Kd, nM) Normal Rat Liver", "protocol": "as §1, §2, §7, §3, §4"}, "HepG2 cells [4]": {"system": "HepG2 cells", "experiment": "HepG2 cell proliferation (cell counting)", "format": "cell-based", "protocol": "(§8) HepG2 or HuH-7 cells were maintained in 75-cm^2 flasks at 37° C. under a humidified atmosphere of 5% CO2 in modified Minimum Essential Medium (Gibco-BRL) supplemented with 10% fetal bovine serum, 200mM 1-Glutamine (1%), Penicillin (1000 IU/ml), streptomycin (100 μg/ml) and sodium bicarbonate (0.15%). Cells grown to confluence were harvested following mild trypsinization and wash (twice by slow centrifugation; 400 g for 10 minutes) in normal culture medium.\n(§9) Approximately 50,000 cells in 1.0 ml culture media were plated in 24 deep well plates (Flacon). This time was considered day -1. Cells were allowed to grow for one day. The growing cells were then treated with various hormones (at day 0) prepared aseptically in culture media immediately prior to addition. The final volume was maintained at 1 ml. The plates were then incubated at 37° C. for a period of 4 to 6 days, as described above.\n(§10) Cells in each well were harvested by removal of culture media and incubation with 0.5 ml 0.25% trypsin and 1.75 mM EDTA for 30 minutes at 37° C. Cells were then transferred into 1.5 ml microfuge tubes and centrifuged at 100g for 10 minutes. The supernatant was removed and the pellet was resuspended in a final volume of 200 μl of culture media containing 10% trypan blue.\nCells were then counted using a hemocytometer. The average cell mortality was less than 5.0% and was not different among different treatment groups. Each value represents the mean and standard error of several experiments (n>3), each carried out in quadruplicate incubations at each time point and hormone concentration.\nas §5\nThe effect of GnRH-related peptides on the proliferation of the human hepatoma derived cell line HepG2 was studied. Values (mean ± SEM) represent the percent change with respect to initial cell number at day 0 over a period of six days in culture.\nThe dose response curves were analyzed by a computerized, four parameter curve fitting program (ALLFIT) as described. The result of time-related response on cell proliferation was analyzed using a two-way ANOVA with multiple comparison means of using computerized statistical package (SYSTAT)."}, "HepG2 cells [5]": {"system": "HepG2 cells", "experiment": "3H-thymidine uptake in HepG2 cells", "format": "cell-based, human", "protocol": "(§11) […] 3H-thymidine (Amersham TRK.120, 102 mCi/mg) was added to each well and was incubated at 37° C. for 4 hours. The media containing unabsorbed 3H-thymidine was aspired off and the cells were washed twice with ice cold phosphate buffered saline (PBS). The cells were then fixed with 5% trichloro acetic acid (TCA) for 20 minutes and washed twice with double distilled water. The fixed cells were solubilized with 0.2 ml NCS tissue solubilizer (Amersham) and counted for radioactivity using a liquid scintillation counter (50% efficiency).\nThe effect of GnRH-related peptides on ^3 H-thymidine incorporation was tested to assess changes in DNA synthesis of HepG2 cells (FIGS. 7A and 7B). Methods used were as previous described."}, "HuH-7 cells [6]": {"system": "HuH-7 cells", "experiment": "HuH-7 cell proliferation", "format": "cell-based, human", "conditions": "single administration at 10^-7 M, six days in culture", "protocol": "as §8, §9, §10\nCells were then counted using a hemocytometer. […]"}, "HuH-7 cells [7]": {"system": "HuH-7 cells", "experiment": "3H-thymidine uptake in HuH-7 cells", "format": "cell-based, human", "conditions": "10^-7 M, time-related", "protocol": "as §11"}}, "note": "Entries after “also recorded” stand apart in the source; their conditions may differ. Where two headings read alike, the source gives them in different places.", "data": [{"smiles": "CC(C)C[C@H](NC(=O)[C@@H](CCCCN)NC(=O)[C@H](Cc1ccc(O)cc1)NC(=O)[C@H](CO)NC(=O)[C@H](Cc1c[nH]c2ccccc12)NC(=O)[C@H](Cc1c[nH]cn1)NC(=O)[C@@H]1CCC(=O)N1)C(=O)N[C@@H](CCCNC(=N)N)C(=O)N1CCC[C@H]1C(=O)NCC(N)=O", "note": "[[D-Lys^6]-GnRH, pGlu-His-Trp-Ser-Tyr-DLys-Leu-Arg-Pro-Gly-NH2]", "values": [{"measurement": "Kd", "setting": "[1]", "result": 9.17, "unit": "nM"}, {"measurement": "Kd", "setting": "[2]", "result": 3300, "unit": "nM"}, {"measurement": "Kd", "setting": "[3]", "result": 769, "unit": "nM"}, {"measurement": "Suppression of HepG2 growth ED50", "setting": "HepG2 cells [4]", "result": 2.00, "unit": "nM"}, {"measurement": "HepG2 doubling time", "setting": "HepG2 cells [4]; 10 nM, calculated over 4 days of growth", "result": "65 ± 4.9", "unit": "h"}, {"measurement": "HepG2 doubling time", "setting": "HepG2 cells [4]; 100 nM, calculated over 4 days of growth", "result": "77 ± 6.7", "unit": "h"}, {"measurement": "HepG2 doubling time", "setting": "HepG2 cells [4]; 1000 nM, growth phase, over 4 days of growth", "result": "105 ± 10.0", "unit": "h"}, {"measurement": "Effect on HepG2 cell proliferation, repeated administration", "setting": "HepG2 cells [4]; 10^-7 M every two days, six days in culture", "result": "significantly suppressed"}, {"measurement": "Reversal of HepG2 growth suppression after removing the peptide or adding GnRH antagonist", "setting": "HepG2 cells [4]; after three days of treatment", "result": "can not be reversed; also recorded: cannot be reversed"}, {"measurement": "Suppression of HepG2 growth ED50", "setting": "HepG2 cells [4]; calculated at day 4 of growth", "result": "2.00 ± 0.9", "unit": "nM"}, {"measurement": "Effect on HepG2 cell proliferation", "setting": "HepG2 cells [4]; single administration at 10^-7 M, six days in culture", "result": "significantly suppressed"}, {"measurement": "3H-thymidine incorporation in HepG2 cells", "setting": "HepG2 cells [5]; 10^-7 M, over 4 days of incubation", "result": "blocked further ^3 H-thymidine incorporation above the day 1 level"}, {"measurement": "ED50, inhibition of DNA synthesis (3H-thymidine incorporation) in HepG2 cells", "setting": "HepG2 cells [5]; after 72 hours in culture", "result": "0.18 ± 0.03", "unit": "nM"}, {"measurement": "ED50, inhibition of DNA synthesis (3H-thymidine incorporation) in HepG2 cells", "setting": "HepG2 cells [5]; after 96 hours in culture", "result": "0.14 ± 0.02", "unit": "nM"}, {"measurement": "Effect on HuH-7 cell proliferation", "setting": "HuH-7 cells [6]", "result": "significantly suppressed; also recorded: totally inhibited"}, {"measurement": "3H-thymidine incorporation in HuH-7 cells", "setting": "HuH-7 cells [7]", "result": "blocked further ^3 H-thymidine incorporation above day 1 level"}]}]}
